Experiments:
Adenosine receptor A1 = biological target: T1, Adenosine receptor A1 (Cavia porcellus, UniProt P47745); test: Binding affinity against Adenosine A1 receptor from guinea pig forebrain membranes by N6-[3H]- cyclohexyladenosine displacement.
T1 sequence (P47745 whole entry): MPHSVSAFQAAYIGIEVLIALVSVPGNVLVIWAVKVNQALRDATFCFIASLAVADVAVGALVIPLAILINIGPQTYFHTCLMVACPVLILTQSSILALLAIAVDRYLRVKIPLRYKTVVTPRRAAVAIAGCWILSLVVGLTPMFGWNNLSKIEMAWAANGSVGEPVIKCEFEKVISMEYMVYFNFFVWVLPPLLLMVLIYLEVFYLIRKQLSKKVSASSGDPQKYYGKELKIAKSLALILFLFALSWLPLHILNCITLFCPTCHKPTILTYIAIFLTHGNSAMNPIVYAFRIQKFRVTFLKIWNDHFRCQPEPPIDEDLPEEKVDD

Adenosine A2 receptor [1] = biological target: T2, Adenosine A2 receptor (Rattus norvegicus, UniProt P29276+P30543); test: Binding affinity against Adenosine A2 receptor from rat striatal membranes with N-[3H] ethyladenosin-5'-uronamide
Mus musculus [2] = test: Acquisition time in (R)-PIA) induced avoidance test (performed in mice) for antagonistic activity after peroral administration of 0.08 mg/kg; format: functional; details: route oral
Mus musculus [3] = test: Acquisition time in (R)-PIA) induced avoidance test (performed in mice) for antagonistic activity after p.o. administration of 0.31 mg/kg; format: functional; details: route oral
Mus musculus [4] = test: Acquisition time in (R)-PIA) induced avoidance test (performed in mice) for antagonistic activity after p.o. administration of 1.25 mg/kg; format: functional; details: route oral
Mus musculus [5] = test: Retention time in (R)-PIA) induced avoidance test (performed in mice) for antagonistic activity after p.o. administration of 1.25 mg/kg; format: functional, organism-based; set-up: dose 1.25 mg/kg
Mus musculus [6] = test: Retention time in (R)-PIA) induced avoidance test (performed in mice) for antagonistic activity after peroral administration of 5 mg/kg; format: functional, organism-based; set-up: dose 5 mg/kg
Mus musculus [7] = test: Retention time in (R)-PIA) induced avoidance test (performed in mice) for antagonistic activity after peroral of 0.31 mg/kg; format: functional, organism-based; set-up: dose 0.31 mg/kg
Mus musculus [8] = test: Retention time in (R)-PIA) induced avoidance test (performed in mice) for antagonistic activity after peroral administration of 0.08 mg/kg; format: functional, organism-based; set-up: dose 0.08 mg/kg
Rattus norvegicus [9] = test: Acquisition time in Scopolamine induced avoidance test (performed in rat) for antagonistic activity after peroral administration of 1.25 mg/kg; format: functional; details: route oral
Rattus norvegicus [10] = test: Acquisition time in Scopolamine induced avoidance test (performed in rat) for antagonistic activity after peroral administration of 20 mg/kg; format: functional; details: route oral
Rattus norvegicus [11] = test: Acquisition time in Scopolamine induced avoidance test (performed in rat) for antagonistic activity after peroral administration of 0.02 mg/kg; format: functional; details: route oral
Rattus norvegicus [12] = test: Acquisition time in Scopolamine induced avoidance test (performed in rat) for antagonistic activity after p.o. administration of 0.08 mg/kg; format: functional; details: route oral
Rattus norvegicus [13] = test: Acquisition time in Scopolamine induced avoidance test (performed in rat) for antagonistic activity after p.o. administration of 0.31 mg/kg; format: functional; details: route oral
Rattus norvegicus [14] = test: Acquisition time in Scopolamine induced avoidance test (performed in rat) for antagonistic activity after p.o. administration of 5 mg/kg; format: functional; details: route oral
Rattus norvegicus [15] = test: Retention time in Scopolamine induced avoidance test (performed in […]) for antagonistic activity after peroral administration of 5 mg/kg; format: functional, organism-based; set-up: dose 5 mg/kg
Rattus norvegicus [16] = test: Retention time in Scopolamine induced avoidance test (performed in rat) for antagonistic activity after peroral administration of 0.02 mg/kg; format: functional, organism-based; set-up: dose 0.02 mg/kg
Rattus norvegicus [17] = test: Retention time in Scopolamine induced avoidance test (performed in rat) for antagonistic activity after p.o. administration of 0.08 mg/kg; format: functional, organism-based; set-up: dose 0.08 mg/kg
Rattus norvegicus [18] = test: Retention time in Scopolamine induced avoidance test (performed in rat) for antagonistic activity after p.o. administration of 0.31 mg/kg; format: functional, organism-based; set-up: dose 0.31 mg/kg
Rattus norvegicus [19] = test: Retention time in Scopolamine induced avoidance test (performed in rat) for antagonistic activity after peroral administration of 1.25 mg/kg; format: functional, organism-based; set-up: dose 1.25 mg/kg
Rattus norvegicus [20] = test: Retention time in Scopolamine induced avoidance test (performed in rat) for antagonistic activity after peroral administration of 20 mg/kg; format: functional, organism-based; set-up: dose 20 mg/kg
Mus musculus [21] = test: Acquisition time in (R)-PIA) induced avoidance test (performed in mice) for antagonistic activity after peroral administration of 5 mg/kg; format: functional; details: route oral
Adenosine A2 receptor [22] = biological target: T2, Adenosine A2 receptor; test: Binding affinity at Adenosine A2 receptor from rat striatal membranes by N-[3H] ethyladenosin-5'- uronamide displacement.
Mus musculus [23] = test: Retention time in (R)-PIA) induced avoidance test (performed in mice) for antagonistic activity after peroral administration of 0.31 mg/kg; format: functional, organism-based; set-up: dose 0.31 mg/kg
Rattus norvegicus [24] = test: Retention time in Scopolamine induced avoidance test (performed in rat) for antagonistic activity after peroral administration of 20 mg/kg (n=19); format: functional, organism-based; set-up: dose 20 mg/kg
Rattus norvegicus [25] = test: Acquisition time in Scopolamine induced avoidance test (performed in rat) for antagonistic activity after peroral administration of 1.25 mg/kg (n=20); format: functional; details: route oral
Mus musculus [26] = test: Retention time in (R)-PIA) induced avoidance test (performed in mice) for antagonistic activity after peroral administration of 0.02 mg/kg
Mus musculus [27] = test: Acquisition time in (R)-PIA) induced avoidance test (performed in mice) for antagonistic activity after peroral administration of 0.02 mg/kg; details: route oral
Mus musculus [28] = test: Tested for locomotor activity after oral administration of 5 mg/kg for 120 min; format: functional
Mus musculus [29] = test: Tested for locomotor activity after oral administration of 1.25 mg/kg for 120 min; format: functional
Rattus norvegicus [30] = test: Retention time in Scopolamine induced avoidance test (performed in rat) for antagonistic activity after peroral administration of 20 mg/kg (n=10); format: functional, organism-based; set-up: dose 20 mg/kg

SMILES	Acquisition time (Mus musculus [2])	Acquisition time (Mus musculus [3])	Acquisition time (Mus musculus [4])	Retention time (Mus musculus [5])	Retention time (Mus musculus [6])	Retention time (Mus musculus [8])	Acquisition time (Rattus norvegicus [9])	Acquisition time (Rattus norvegicus [10])	Acquisition time (Rattus norvegicus [12])	Acquisition time (Rattus norvegicus [13])	Acquisition time (Rattus norvegicus [14])	Retention time (Rattus norvegicus [15])	Retention time (Rattus norvegicus [17])	Retention time (Rattus norvegicus [18])	Retention time (Rattus norvegicus [19])	Acquisition time (Mus musculus [21])	Retention time (Mus musculus [23])	Retention time (Mus musculus [26])	Acquisition time (Mus musculus [27])	further results
CCCn1c(=O)c2[nH]c(C3CCCC3)nc2n(CCC)c1=S	24.7 s	32.7 s	12.3 s	52.7 s	104 s	48.1 s	9.9 s	6.7 s	9.4 s	8.9 s	8.5 s	21.6 s	75.3 s	25.8 s	56.4 s	26.9 s	–	–	–	Ki (Adenosine receptor A1): 0.0066 µM; Ki (Adenosine A2 receptor [1]): > 10 µM; Retention time (Mus musculus [7]): 121 s; Acquisition time (Rattus norvegicus [11]): 8.9 s; Retention time (Rattus norvegicus [16]): 19 s; Retention time (Rattus norvegicus [20]): 52.4 s
CCCn1c(=O)c2nc(C3CCC(=O)C3)[nH]c2n(CCc2ccc(N)cc2)c1=O (stereo not given)	16.4 s	17.5 s	14.6 s	19.1 s	67.7 s	18.7 s	–	13.6 s	10.5 s	13.1 s	10.2 s	108 s	119 s	109 s	163 s	12.9 s	23.4 s	73.9 s	14.2 s	Ki (Adenosine A2 receptor [22]): > 100 µM; Retention time (Rattus norvegicus [24]): 117 s; Acquisition time (Rattus norvegicus [25]): 12.1 s
CCCN1C(=O)N2CC(CC)N=C2c2[nH]c(C34CC5CC(CC3C5)C4)nc21 (racemic)	23.5 s	22.7 s	21.2 s	231 s	277 s	196 s	14.1 s	26.6 s	21.3 s	17.3 s	22.5 s	66.3 s	251 s	221 s	40.8 s	24.9 s	292 s	168 s	23 s	Locomotor activity (Mus musculus [28]): 6907 Counts; Locomotor (Mus musculus [29]): 5761 Counts; Retention time (Rattus norvegicus [30]): 21 s
